{
  "source": "patent US12459931B2",
  "about": "“Benzothiophene derivative regulator, preparation method therefor and use thereof” (Shanghai Hansoh Biomedical Co., Ltd., priority 2019, dated 2025)",
  "key": {"5-HT2A receptor": {"biological_target": "5-HT2A receptor (Homo sapiens (Human), UniProt P28223)", "sequence (P28223 whole entry)": "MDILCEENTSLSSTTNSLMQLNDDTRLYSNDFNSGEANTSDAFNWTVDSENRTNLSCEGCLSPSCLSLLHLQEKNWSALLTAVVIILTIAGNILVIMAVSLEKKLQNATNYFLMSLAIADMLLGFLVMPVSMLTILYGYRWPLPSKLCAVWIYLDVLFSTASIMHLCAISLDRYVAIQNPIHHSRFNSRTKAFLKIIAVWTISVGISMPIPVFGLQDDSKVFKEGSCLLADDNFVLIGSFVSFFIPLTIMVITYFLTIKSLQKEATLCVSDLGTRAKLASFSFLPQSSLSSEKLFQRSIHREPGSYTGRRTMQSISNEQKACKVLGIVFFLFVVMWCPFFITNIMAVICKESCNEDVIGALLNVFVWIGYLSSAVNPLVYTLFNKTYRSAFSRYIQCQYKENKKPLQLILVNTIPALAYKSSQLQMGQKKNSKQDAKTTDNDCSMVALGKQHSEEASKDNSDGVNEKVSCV", "assay": "Radioligand-receptor binding assay, 5-HT2A receptor ([3H]-Ketanserin)", "settings": "[3H]-Ketanserin 2 nM, human 5-HT2A receptor membrane; read-out: 5HT-2A binding activity IC50", "protocol": "Determination of the Binding Ability of the Compounds of the Present Invention to 5-HT2A Receptor\nThe objective of this test example is to determine the affinity of the compounds for 5-HT2A receptor.\nAssay buffer: 50 mM Tris-HCl pH 7.4, 4 mM CaCl2); wash solution: 50 mM Tris-HCl pH 7.4, stored at 4° C.; 0.5% PEI solution: 0.5 g PEI dissolve in 100 mL ddH2O, 4° C. storage of spare.\n5 μL of the test compounds (0.005 nM to 100 nM, 10 concentrations in total) and 100 μL of buffer were added to a 96-well assay plate. 1.5 μL of cell membrane and 300 L of buffer were added to each well. The plate was shaken at 600 rpm for 5 min. A mixed solution of 100 μL of buffer and [^3H]-Ketanserin (the final concentration was 2 nM) was added to each well. The plate was shaken at 600 rpm for 5 min, and incubated at 27° C. for 30 min. The […]-96 GF/B filter plate pre-incubated with 0.5% PEI for 1 h was washed twice with the buffer (1 mL/well). The cell membrane suspension was added to the […]-96 GF/B filter plate, washed 4 times, and incubated at 55° C. for 10 min. 40 μL of ULTIMA GOLD was added to each well, and liquid scintillation counting was carried out.\n(§1) The CPM (Counts per minute) values were determined by TopCount. […] The 10 concentrations of the compound were from 100 nM to 0.005 nM after 3-fold dilution of the reaction system. The percent inhibition rate and ten-point concentration data were fitted to the parametric nonlinear logistic equation by using GraphPad prism to calculate the IC50 values of the compound."}, "[1]": {"biological_target": "Human Dopamine D3 Receptor (Homo sapiens (Human), UniProt P35462)", "sequence (P35462 whole entry)": "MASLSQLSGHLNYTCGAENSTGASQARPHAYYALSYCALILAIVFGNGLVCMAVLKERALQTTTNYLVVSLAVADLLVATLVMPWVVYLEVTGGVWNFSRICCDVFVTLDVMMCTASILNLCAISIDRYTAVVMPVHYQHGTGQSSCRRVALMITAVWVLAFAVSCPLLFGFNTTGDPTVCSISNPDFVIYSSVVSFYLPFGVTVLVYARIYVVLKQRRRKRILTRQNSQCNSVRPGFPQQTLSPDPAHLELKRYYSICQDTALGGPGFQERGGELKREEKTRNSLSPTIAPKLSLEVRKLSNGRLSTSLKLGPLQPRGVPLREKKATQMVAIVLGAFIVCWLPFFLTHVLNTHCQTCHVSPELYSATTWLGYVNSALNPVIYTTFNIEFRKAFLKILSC", "assay": "Radioligand-receptor binding assay, dopamine D3 receptor ([3H]-methylspiperone)", "settings": "[3H]-methylspiperone 0.5 nM, human D3 receptor membrane", "protocol": "Determination of the Binding Ability of the Compounds of the Present Invention to Dopamine D3 Receptor\nThe objective of this test example is to determine the affinity of the compounds for dopamine D3 receptor.\nAssay buffer: 50 mM Tris-HCl pH 7.4, 10 mM MgCl2; wash solution: 50 mM Tris-HCl pH 7.4, stored at 4° C.; 0.5% PEI solution: 0.5 g PEI dissolve in 100 mL ddH2O, 4° C. storage of spare.\n5 μL of the test compounds (0.005 nM to 100 nM, 10 concentrations in total) and 100 μL of buffer were added to a 96-well assay plate. 1 μL of cell membrane and 300 μL of buffer were added to each well, and the plate was shaken at 600 rpm for 5 min. A mixed solution of 100 μL of buffer and [^3H]-methylspiperone (the final concentration was 0.5 nM) was added to each well. The plate was shaken at 600 rpm for 5 min, and incubated at 27° C. for 30 min. The […]-96 GF/B filter plate pre-incubated with 0.5% PEI for 1 h was washed twice with the buffer (1 mL/well). The cell membrane suspension was added to the […]-96 GF/B filter plate, washed 4 times, and incubated at 55° C. for 10 min. 40 μL of ULTIMA GOLD was added to each well, and liquid scintillation counting was carried out.\nas §1"}},
  "data": [
    {"smiles": "O=C(N[C@H]1CC[C@H](CCN2CCN(c3cccc4sccc34)CC2)CC1)N1CC(F)(F)C1", "note": "[Example 2, N-(Trans-4-(2-(4-(benzo[b]thiophen-4-yl)piperazin-1-yl)ethyl)cyclohexyl)-3,3-difluoro azetidine-1-carboxamide]", "values": [
      {"measurement": "IC50", "setting": "5-HT2A receptor", "value": 3.4, "unit": "nM"},
      {"measurement": "IC50", "setting": "[1]", "value": 0.76, "unit": "nM"}
    ]},
    {"smiles": "CC1(O)CN(C(=O)N[C@H]2CC[C@H](CCN3CCN(c4cccc5sccc45)CC3)CC2)C1", "note": "[Example 3, N-(Trans-4-(2-(4-(benzo[b]thiophen-4-yl)piperazin-1-yl)ethyl)cyclohexyl)-3-hydroxy-3-methylazetidine-1-carboxamide]", "values": [
      {"measurement": "IC50", "setting": "[1]", "value": 1.59, "unit": "nM"}
    ]},
    {"smiles": "COC1(C)CN(C(=O)N[C@H]2CC[C@H](CCN3CCN(c4cccc5sccc45)CC3)CC2)C1", "note": "[Example 4, N-(Trans-4-(2-(4-(benzo[b]thiophen-4-yl)piperazin-1-yl)ethyl)cyclohexyl)-3-methoxy-3-methylazetidine-1-carboxamide]", "values": [
      {"measurement": "IC50", "setting": "5-HT2A receptor", "value": 0.26, "unit": "nM"},
      {"measurement": "IC50", "setting": "[1]", "value": 1.52, "unit": "nM"}
    ]},
    {"smiles": "CN(C)C(=O)N[C@H]1CC[C@](F)(CCN2CCN(c3cccc4sccc34)CC2)CC1", "note": "[Example 15, 3-(Cis-4-(2-(4-(benzo[b]thiophen-4-yl)piperazin-1-yl)ethyl)-4-fluorocyclohexyl)-1,1-dimethylurea]", "values": [
      {"measurement": "IC50", "setting": "[1]", "value": 4.25, "unit": "nM"}
    ]},
    {"smiles": "CCNC(=O)N[C@H]1CC[C@](F)(CCN2CCN(c3cccc4sccc34)CC2)CC1", "note": "[Example 16, 1-(Cis-4-(2-(4-(benzo[b]thiophen-4-yl)piperazin-1-yl)ethyl)-4-fluorocyclohexyl)-3-ethylurea]", "values": [
      {"measurement": "IC50", "setting": "5-HT2A receptor", "value": 2.07, "unit": "nM"},
      {"measurement": "IC50", "setting": "[1]", "value": 0.57, "unit": "nM"}
    ]},
    {"smiles": "CN(C)C(=O)NC1CCC(CCN2CCN(c3cccc4sccc34)CC2)CC1F", "note": "(stereo not drawn) [Example 23, 3-(4-(2-(4-(Benzo[b]thiophen-4-yl)piperazin-1-yl)ethyl)-2-fluorocyclohexyl)-1,1-dimethylurea]", "values": [
      {"measurement": "IC50", "setting": "5-HT2A receptor", "value": 6.45, "unit": "nM"},
      {"measurement": "IC50", "setting": "[1]", "value": 2.69, "unit": "nM"}
    ]},
    {"smiles": "C[C@@H]1CN(c2cccc3sccc23)CCN1CC[C@H]1CC[C@H](Nc2ncc(C#N)cn2)CC1", "note": "[Example 44, 2-((Trans-4-(2-((R)-4-(benzo[b]thiophen-4-yl)-2-methylpiperazin-1-yl)ethyl)cyclohexyl)amino)pyrimidine-5-carbonitrile]", "values": [
      {"measurement": "IC50", "setting": "5-HT2A receptor", "value": 2.59, "unit": "nM"},
      {"measurement": "IC50", "setting": "[1]", "value": 1.58, "unit": "nM"}
    ]},
    {"smiles": "O=C(N[C@H]1CC[C@H](CCN2CCN(c3cccc4sccc34)CC2)CC1)c1ccco1", "note": "[Example 45, N-(Trans-4-(2-(4-(benzo[b]thiophen-4-yl)piperazin-1-yl)ethyl)cyclohexyl)furan-2-carboxamide]", "values": [
      {"measurement": "IC50", "setting": "5-HT2A receptor", "value": 0.63, "unit": "nM"},
      {"measurement": "IC50", "setting": "[1]", "value": 0.12, "unit": "nM"}
    ]},
    {"smiles": "Cc1ccc(C(=O)N[C@H]2CC[C@H](CCN3CCN(c4cccc5sccc45)CC3)CC2)o1", "note": "[Example 46, N-(Trans-4-(2-(4-(benzo[b]thiophen-4-yl)piperazin-1-yl)ethyl)cyclohexyl)-5-methylfuran-2-carboxamide]", "values": [
      {"measurement": "IC50", "setting": "5-HT2A receptor", "value": 0.91, "unit": "nM"},
      {"measurement": "IC50", "setting": "[1]", "value": 0.6, "unit": "nM"}
    ]},
    {"smiles": "COCC(=O)N[C@H]1CC[C@H](CCN2CCN(c3cccc4sccc34)CC2)CC1", "note": "[Example 47, N-(Trans-4-(2-(4-(benzo[b]thiophen-4-yl)piperazin-1-yl)ethyl)cyclohexyl)-2-methoxyacetamide]", "values": [
      {"measurement": "IC50", "setting": "5-HT2A receptor", "value": 0.96, "unit": "nM"},
      {"measurement": "IC50", "setting": "[1]", "value": 0.47, "unit": "nM"}
    ]},
    {"smiles": "CC(C)(O)CC(=O)N[C@H]1CC[C@H](CCN2CCN(c3cccc4sccc34)CC2)CC1", "note": "[Example 48, N-(Trans-4-(2-(4-(benzo[b]thiophen-4-yl)piperazin-1-yl)ethyl)cyclohexyl)-3-hydroxy-3-methylbutanamide]", "values": [
      {"measurement": "IC50", "setting": "5-HT2A receptor", "value": 0.83, "unit": "nM"},
      {"measurement": "IC50", "setting": "[1]", "value": 0.36, "unit": "nM"}
    ]},
    {"smiles": "Fc1cnc(N[C@H]2CC[C@H](CCN3CCN(c4cccc5sccc45)CC3)CC2)nc1", "note": "[Example 49, N-(Trans-4-(2-(4-(benzo[b]thiophen-4-yl)piperazin-1-yl)ethyl)cyclohexyl)-5-fluoropyrimidin-2-amine]", "values": [
      {"measurement": "IC50", "setting": "5-HT2A receptor", "value": 0.34, "unit": "nM"},
      {"measurement": "IC50", "setting": "[1]", "value": 2.43, "unit": "nM"}
    ]},
    {"smiles": "CON(C)C(=O)N[C@H]1CC[C@H](CCN2CCN(c3cccc4sccc34)CC2)CC1", "note": "[Example 50, 3-(Trans-4-(2-(4-(benzo[b]thiophen-4-yl)piperazin-1-yl)ethyl)cyclohexyl)-1-methoxy-1-methylurea]", "values": [
      {"measurement": "IC50", "setting": "5-HT2A receptor", "value": 2.16, "unit": "nM"},
      {"measurement": "IC50", "setting": "[1]", "value": 1.29, "unit": "nM"}
    ]}
  ]
}
